Structures are written as SMILES.

One molecule from patent US11197836B2, “Topical vasoconstrictor preparations and methods for protecting cells during cancer chemotherapy and radiotherapy” (WISCONSIN ALUMNI RESEARCH FOUNDATION, priority 2005, dated 2021) can be followed below.

The data set concerns rat skin. Put plainly: Penetration of topically applied dye into rat skin. The class given is in vivo. The settings on record: applied to rat skin in an alcohol:water solution. The source says: It is preferred for certain embodiments of the invention directed to skin applications to optimize ethanol, propylene glycol, and water percentages to enable sufficient delivery of epinephrine, phenylephrine, norepinephrine, or methoxamine to the skin vasculature, to achieve transient, vasculature constriction, and by so-doing, confer protection to the stem cells of the epidermis and hair follicle. The primary skin vasculature is located within the dermis, largely creating a vascular web surrounding the hair follicle bulbs (shown in FIG. 1). Topical drug delivery to this vasculature is primarily achieved by “transfolicular” delivery, i.e., topically-applied alcohol:water solutions travel within the hair shaft channels to the hair follicle bulb, and then diffuse through the stem cells that comprise the hair follicle bulb to access the dermal vasculature surrounding the bulb. For topical solutions to access dermal vasculature, a minimum percentage of alcohol in the topical delivery vehicle is preferred to enable: i) dissolution or softening of sebaceous oil present in human hair shaft channels, and ii) penetration of the oil-stratum corneum matrix.

As for `CCN(CC)c1ccc2nc3c4ccccc4c(=O)cc-3oc2c1` [Nile Red], the skin penetration result is “penetrates both the stratum corneum and underlying epidermis”.
